Earlier results, collected in publication PMC9074375 (The journal of physical chemistry. B, 2022).

System: malignant cells

Question: For FLGVLALLGYLAVRPFLPKKKQQK [NAF-1^44-67], which “permeation of the plasma membrane” value (malignant versus normal cells) is on record?
Answer: Its value is “selectively permeates the plasma membrane of malignant but not normal cells”.

Question: What about the “killing of cancer cells” value (peptide alone, without therapeutic cargo) of the same sequence?
Answer: The value was “kill cancer cells by itself, without carrying additional therapeutic cargo and without damaging normal cells”.
